Measured values: US20220264883A1, “IMIDAZOTHIAZOLE COMPOUNDS AND METHODS FOR TREATING PLANT NEMATODE INFECTIONS” (The Governing Council of the University of Toronto, priority 2019, published 2022)
Where two headings read alike, the source gives them in different places.

Experiments:
HEK293 cells = test: HEK cell culture and dose-response experiments; format: cell-based, Human; details: non-target system; 48 hours, CellTiter-Blue
Experimental: HEK293 cells were seeded into 96-well plates, at 5000 cells per well, in 100 μL total volumes of DMEM/10% FBS/1% PS media and grown overnight at 37° C. in the presence of 5% CO2. Compounds (0.5 μL volumes from appropriate source plates) were then added to cells, and growth was continued for an additional 48 hours. Following growth, 10 μL of CellTiter-Blue Viability reagent (Promega) was added to each well, and plates were incubated for an additional 4 hours at 37° C. in the presence of 5% CO2. Fluorescence measurements (560 nm excitation/590 nm emission) were then performed using a CLARIOstar Plate Reader (BMG Labtech) to quantify reagent reduction and estimate cell viability.

D. rerio = test: Danio rerio (zebrafish) embryo dose-response experiments; format: in vivo; details: non-target system; embryos, 24 hours exposure
Experimental: Zebrafish chemical assays were performed similarly to previously described methods^63. In brief, fish were maintained at 28.5° C. on a 14/10 hour light/dark cycle and staged according to hours post fertilization (hpf). For each biological replicate, eggs from LT fish (AB/Tubingen strain) were collected at 4 hpf. At 24 hpf, embryos were arrayed in 24 well plates, 10 per well. In 2 ml tubes, 4 μl of chemical dissolved in DMSO at the appropriate concentration was added to 800 μl of water and then vortexed for 30 s intensively. Water was removed from the embryos in the wells and 800 μl of chemical-treated water was transferred to each of the wells. The DMSO control wells contained DMSO alone. The final DMSO concentration in every well was 0.5% (v/v). […] The embryos were incubated in the chemicals for 24 hours and scored for death and toxicity at 48 hpf. Toxicity was defined as the embryos showing developmental defects such as a curved body, reduced body size, skin whiteness, and heart edema. “Relative viability” was calculated by dividing the number of viable and properly developed embryos in the treatment wells by the average number of viable and properly developed embryos across six DMSO control wells. Three biological replicates were performed for each dose-response experiment, and the relative viability values were averaged across the three replicates.

[1] = test system: M. incognita infective juveniles; test: Meloidogyne incognita dose-response experiments (infective J2 juveniles, FIG. 2); format: in vivo; details: for nematicidal activity on M. incognita infective juveniles: 5, 15, 45 micromolar, third day after water rinse
Experimental: M. incognita (Kofoid & White) Chitwood Race 1 (originally isolated in Maryland) was used for all experiments, and were maintained on pepper (Capsicum annuum L.) cv. PA-136 in a greenhouse as previously described^64. Infective J2 juveniles were collected as described in ref. 65. The microwell dose-response experiments were carried out similarly to previously described protocols^64, 66. In brief, 100 J2 s, in 10 μL of deionized water, were added to the wells of 96-well polystyrene plates, after which 190 μL of deionized water containing dissolved chemical, or DMSO alone, was added to each well. The final concentration of DMSO in each well was 0.5% (v/v), except for the water only control which contained no DMSO and no added chemicals. The final concentrations of the chemicals for each dose-response experiment were 5, 15, and 45 μM. The wells were covered with a plastic adhesive strip, and the lids of the plates were sealed with parafilm. The plates were incubated at 25° C. The fraction of active worms was quantified by counting the number of mobile and immobile worms after 1 and 2 days of incubation, and then dividing the number of mobile worms by the total number of worms in the well. After 2 days of incubation, the chemicals were removed and replaced with deionized water (i.e. the water rinse) and the fraction of active worms was quantified 1 day later. A failure of the worms to recover after rinsing with water is consistent with them having been killed by the chemical treatment. Four technical replicates were performed for each treatment.

[2] = test system: C. elegans anthelmintic/nematicide-resistant mutants; test: whole plant or invertebrate; format: in vivo; details: Caenorhabditis elegans
Experimental: Forty microliters of an HB101 bacterial suspension in liquid NGM (see above) was added to each well of a 96-well flat-bottom culture plate, after which approximately 25 synchronized L1 worms, in 10 μl of M9 buffer (see ref. 59 for the recipe), were added to each well. The synchronized L1 worms were obtained from an embryo preparation performed the previous day (see ref. 59 for the protocol). For the L1 assays, 0.5 μl of chemical solution (or DMSO alone) was immediately added to the wells using a multichannel pipette, the final DMSO concentration is 1% (v/v). The worms were incubated for 3 days at 20° C. and the number of viable animals was counted. […] Although the counts were performed after 3 days of incubation in the chemical, it was noted that the L1s were dead within 24 hours of the addition of the chemicals. For the L2/L3 assays, the worms were incubated in the absence of chemical for 1 day at 20° C. until they reached the L2/L3 stage, at which point chemical was added as described above. The worms were then allowed to incubate for 2 days at 20° C. and the number of viable animals was counted as described for the L1 assay. For the L4 assays, the worms were incubated for 2 days at 20° C. before the addition of chemicals. The L4-stage worms were then incubated in chemical for an additional day before quantifying the number of viable animals. The adult assays were performed the same way as the L4 assays, however HT115 E. coli carrying the empty dsRNA expressing vector L4440 was used in place of HB101 and the worms were cultured at 25° C. as opposed to 20° C. for the entirety of the experiment. The HT115 suspension was made by concentrating a bacterial culture, with an OD600 of ˜ 0.8, five-fold with liquid NGM containing 1 mM IPTG and 100 μg/ml carbenicillin. The HT115 cells were induced with 1 mM IPTG for one hour before concentrating with NGM.
The dose-response experiments for the anthelmintic/nematicide-resistant mutants were carried out as described for the L1 dose-response assays. One notable exception is the aldicarb-resistant strain PR1152. This strain grows slowly, and so the viability counts were performed 5 days after addition of the chemical, as opposed to 3 days, to allow the DMSO control worms to reach adulthood.
At least three biological replicates were performed for each dose-response assay. For each biological replicate, two technical replicates were performed and the numbers of viable animals for each technical replicate were combined (i.e. ˜50 worms assayed per concentration). The number of viable worms at each concentration was divided by the corresponding DMSO control value to give the “relative viability” for each concentration. The “relative viability” values were then averaged across the biological replicates. LC50 values were calculated using Graphpad Prism. The concentration values were log-transformed and a four-parameter logistic curve was fitted to the dose-response data by non-linear regression, from which the LC50 values were extracted.

[3] = 120 h, read-out: LC50 in strain PR1152
[4] = read-out: LC50 in strain CB1072
[5] = read-out: LC50 in strain CB3474
[6] = read-out: LC50 in strain CF1038
[7] = read-out: LC50 in strain DA1316
[8] = read-out: LC50 in strain NM1968
[9] = read-out: LC50 in strain RP2674

Row | Structure (SMILES) | HEK Cells LC50 (HEK293 cells) | D. rerio LC50 (D. rerio) | nematicidal activity on M. incognita infective juveniles [1] | inhibitory effects on worm activity compared with tioxazafen ([1]; each time point, every concentration tested) | nematode lethality ([1]; lowest concentration assayed (5 micromolar)) [%] | LC50 [2, 3] [µM] | LC50 [2, 4] [µM] | LC50 [2, 5] [µM] | LC50 [2, 6] [µM] | LC50 [2, 7] [µM] | LC50 [2, 8] [µM] | LC50 [2, 9] [µM] | LC50 ([2]; read-out: LC50 in strain VC731) [µM] | LC50 ([2]; read-out: LC50 in strain RB2119) [µM]
1 | Clc1ccc(-c2cn3ccsc3n2)cc1 [Ia] | inactive | inactive | demonstrated nematicidal activity at one or more concentrations | outperformed the commercial nematicide tioxazafen | 100 | 3.7 | 5.7 | 6.4 | 5.7 | 4.6 | 4.4 | 4.9 | 6.4 | 
2 | Fc1ccc(-c2cn3ccsc3n2)cc1 [Ib] |  |  | demonstrated nematicidal activity at one or more concentrations |  |  | 14.9 | 24.3 | 17 | 16 | 14.5 | 16 | 16.4 | 28.5 | 27.5
